This data set in a line: Monitoring of recipient monkeys by blood test during immunosuppressant administration. Particulars: blood test after start of administration. Type of data set: in vivo, cynomolgus monkey. How it is done: Regarding the start day, the day of transplantation is represented by (0), and the preceding days are represented by the minus sign (−). Specifically, in the therapy, tacrolimus (0.02 mg/kg im×2/day; day −9 from start day), abatacept (50 mg/kg iv×1/week; day 7 from start day), and mycophenolate mofetil (40 mg/kg po×2/day; day −5 from start day) were used. The administration of methylprednisolone (10 mg/kg iv) was also carried out from day 0 from the start day, which was changed to oral administration (5 mg/kg) from the next day. […] Furthermore, thymoglobulin (10 mg/kg iv on day 3), rituximab (10 mg/kg iv on day 2), tocilizumab (10 mg/kg sc on day −1, 7, and 14), and etanercept (0.5 mg/kg sc on day 0, 3, 6, and 10) were administered. The concentrations of tacrolimus and mycophenolate mofetil in blood were measured twice a week, and the dose was appropriately adjusted based on the target trough level (TAC trough level: 15 to 20 ng/mL on day −9 to 2; 9 to 12 ng/ml from day 3, MMF trough level: 4 to 6 μg/mL).
The daily dietary status and activity of the recipient monkeys were monitored, and support was provided through supplementation as needed. Furthermore, the systemic condition of the monkeys was evaluated by the measurement of body weight. body temperature, and SpO2 as well as blood sampling conducted twice a week. […]

As to `COc1c(C)c2c(c(O)c1C/C=C(\C)CCC(=O)OCCN1CCOCC1)C(=O)OC2` [MMF, Mycophenolate mofetil], the absorption result is on record as “confirmed”.

These data come from US20240226288A1, “TRANSPLANT MATERIAL AND KIDNEY TRANSPLANT KIT” (THE JIKEI UNIVERSITY, priority 2021, published 2024).
